According to US20250032449A1, “TREATMENT OF RHEUMATOID ARTHRITIS” (SYNACT PHARMA APS, priority 2021, published 2025):
Read-outs that look alike come from different tables or passages of the source.

Key:
[1] = tested on: MC3R; conditions: cited from earlier work
[2] = tested on: mouse primary macrophages; conditions: cited from earlier work
[3] = tested on: experimental inflammatory arthritis; conditions: oral; cited from earlier work
[4] = tested on: macrophages; conditions: cited from earlier work
[5] = steady conditions, repeated dose Phase I
[6] = tested on: peritonitis; conditions: oral, cited from earlier work
[7] = tested on: newly diagnosed subjects with severe active RA (CDAI>22); assay: Phase IIa placebo-controlled study in early RA patients starting MTX: CDAI; conditions: for CDAI Baseline, group mean / CDAI Screening, group mean / CDAI Week 4, group mean / CDAI Week 2, group mean / CDAI Week 5, group mean / CDAI Difference / CDAI Difference in %: n = 31; for CDAI Baseline, group mean / CDAI Screening, group mean: before treatment; for CDAI Week 4, group mean: end of treatment; for CDAI Week 2, group mean: mid-treatment; for CDAI Week 5, group mean: one week follow-up after last dosage; for CDAI Difference / CDAI Difference in %: week 4 versus baseline
[8] = tested on: alanine aminotransferase/alanine transaminase (ALAT)
Description: The study population will consist of newly diagnosed subjects with severe active RA (CDAI (Clinical disease activity score)>22) who are to start up-titration with methotrexate (MTX).
Sodium, potassium, chloride, calcium, glucose, creatinine, urea, albumin, unconjugated and total bilirubin, aspartate transaminase (AST), alanine transaminase (ALT), alkaline phosphatase (ALP), gamma-glutamyl transferase (GGT) and INR. The biochemistry blood samples will be taken at all visits. A serum β-HCG pregnancy test will be taken at screening.
Safety measures (AEs, SAEs, including laboratory abnormalities) will be registered during the whole study duration.
ALAT is commonly elevated following MTX treatment.

[9] = tested on: MC1R; conditions: cited from earlier work
[10] = tested on: melanocytes; conditions: cited from earlier work
[11] = tested on: mouse model of arthritis; conditions: WO 2020/229297; cited from earlier work
[12] = tested on: aminotransferases (ALT or ALAT, AST); conditions: known effect of MTX; cited from earlier work
[13] = 50 mg AP1189 (acetate salt) group
[14] = 50 mg AP1189 (acetate salt) once daily plus MTX (10-25 mg) weekly
[15] = 50 mg AP1189 (acetate salt) once daily plus MTX weekly
[16] = 100 mg AP1189 (acetate salt) group
[17] = 100 mg AP1189 (acetate salt) once daily plus MTX (10-25 mg) weekly
[18] = 100 mg AP1189 (acetate salt) once daily plus MTX weekly
[19] = 100 mg dosage AP1189 (acetate salt), with MTX
[20] = 50 mg AP1189 once daily plus MTX weekly, 2 weeks, n 32
[21] = 50 mg AP1189 once daily plus MTX weekly, 4 weeks (end of treatment), n 33
[22] = 50 mg AP1189 once daily plus MTX weekly, 5 weeks (one week after final dosage), n 32
[23] = 100 mg AP1189 once daily plus MTX weekly, 2 weeks, n 34
[24] = 100 mg AP1189 once daily plus MTX weekly, 4 weeks (end of treatment), n 33
[25] = 100 mg AP1189 once daily plus MTX weekly, 5 weeks (one week after final dosage), n 35

(E)-N-trans-{3-[1-(2-nitrophenyl)-1H-pyrrol-2-yl]-allylidene}-aminoguanidinium acetate [AP1189]
ERK1/2 phosphorylation [1]: cause ERK1/2 phosphorylation | canonical cAMP generation [1]: does not induce canonical cAMP generation | Efferocytosis [2]: proefferocytic effect | Macroscopic and histological parameters of joint disruption [3]: significant reduction | Cytokine release [4]: reduce cytokine release | C Max (mean +/− SD, N = 9) ([5]; 50 mg once daily): 180 ± 38 ng/mL | C Trough (Mean +/− SD, N = 9) ([5]; 50 mg once daily): 46 ± 14 ng/mL | C Max (mean +/− SD, N = 9) ([5]; 100 mg once daily): 427 ± 76 ng/mL | C Trough (Mean +/− SD, N = 9) ([5]; 100 mg once daily): 100 ± 25 ng/mL | C Max (mean +/− SD, N = 9) ([5]; 200 mg once daily): 893 ± 198 ng/mL | C Trough (Mean +/− SD, N = 9) ([5]; 200 mg once daily): 186 ± 45 ng/mL | Anti-inflammatory action in peritonitis [6]: elicits anti-inflammatory actions | Resolution phase ([6]; peritonitis): accelerated the resolution phase | CDAI Baseline, group mean [7, 13]: 36.1 | CDAI Screening, group mean [7, 13]: 35.6 | CDAI Week 4, group mean [7, 14]: 24.2 | CDAI Week 2, group mean [7, 14]: 29.9 | CDAI Week 5, group mean [7, 14]: 22.9 | CDAI Difference [7, 15]: −11.9 | CDAI Difference in % [7, 15]: 33% | CDAI Baseline, group mean [7, 16]: 39 | CDAI Screening, group mean [7, 16]: 38.9 | CDAI Week 4, group mean [7, 17]: 23.9 | CDAI Week 2, group mean [7, 17]: 28.9 | CDAI Week 5, group mean [7, 17]: 21.3 | CDAI Difference [7, 18]: −15.1 | CDAI Difference in % [7, 18]: 39% | Efficacy in treating rheumatoid arthritis (CDAI) [7, 19]: a reduction in CDAI | Effect in reducing CDAI ([7]; both tested dosages, 50 mg and 100 mg, with MTX): significant effect of AP1189 in reducing CDAI | ALAT 2 weeks (share of subjects with clinical significant abnormal value) [8, 20]: 6.3% | ALAT CSA (Clinical significant abnormal value), number [8, 20]: 2 | ALAT 4 weeks (share of subjects with clinical significant abnormal value) [8, 21]: 6.1% | ALAT CSA (Clinical significant abnormal value), number [8, 21]: 2 | ALAT 5 weeks (share of subjects with clinical significant abnormal value) [8, 22]: 6.3% | ALAT CSA (Clinical significant abnormal value), number [8, 22]: 2 | Effect on MTX-associated elevation of transaminases ([8]; 50 mg dosage AP1189 (acetate salt), with MTX): did not reduce MTX-associated elevation of transaminases | ALAT 2 weeks (share of subjects with clinical significant abnormal value) [8, 23]: 0.0% | ALAT CSA (Clinical significant abnormal value), number [8, 23]: 0 | ALAT 4 weeks (share of subjects with clinical significant abnormal value) [8, 24]: 0.0% | ALAT CSA (Clinical significant abnormal value), number [8, 24]: 0 | ALAT 5 weeks (share of subjects with clinical significant abnormal value) [8, 25]: 0.0% | ALAT CSA (Clinical significant abnormal value), number [8, 25]: 0 | Effect on MTX-associated elevation of transaminases [8, 19]: completely abolish the MTX-associated elevation of transaminases | ALAT change ([8]; dosage of 50 mg, with MTX, at 2 weeks, 4 weeks (EoT) and 5 weeks (FoV)): an increase in ALAT is observed | ALAT elevation ([8]; dosage of 100 mg AP1189, with MTX): 0.0% | ERK1/2 phosphorylation [9]: cause ERK1/2 phosphorylation | canonical cAMP generation [9]: does not induce canonical cAMP generation | Melanogenesis [10]: no melanogenesis was induced | Combined effect of AP1189 and methotrexate (MTX) [11]: synergistic effect

CN(Cc1cnc2nc(N)nc(N)c2n1)c1ccc(C(=O)N[C@@H](CCC(=O)O)C(=O)O)cc1 [MTX, methotrexate]
Effect on aminotransferases (transaminases) [12]: cause an increase in aminotransferases
